Laboratory results: US12404285B2, “KRAS G12D proteolysis targeting chimeras” (PAQ Therapeutics Inc., priority 2022, dated 2025)

Target: T1, KRAS in AGS cells (KRAS G12D mutant cell line) or LS180 cells (KRAS G12D mutant cell line) (Homo sapiens, UniProt P01116, G12D)
T1 construct: CRL-187 (LS180) (so in the source); host or cells: AGS or LS180 cells
Assay: KRAS Western Blot (WB) assay
Type: cell-based
Conditions: KRAS degradation, 24 hours incubation, normalized to β-actin
Experimental: Day 1. Seeded AGS cells (KRAS G12D mutant cell line, ATCC, CRL-1739) or LS180 cells (KRAS G12D mutant cell line, ATCC, CRL-187) into 6-well plates (cell density: 3×10^5 cells/well/2 ml medium) in Ham's F-12 medium (Invitrogen, 11765-054) or Eagle's Minimum Essential Medium (ATCC, 30-2003) and incubated overnight at 37° C. and 5% CO2.
Day 2. Aspirated 1 ml medium from each well and added 1 ml medium containing DMSO or test compound into the well to achieve the desired final concentration. Mixed well by gentle shaking and incubated for 24 hours.
Day 3. Aspirated media from plates; washed cells with 2 ml 4° C. PBS (Solarbio, P1020-500) and aspirated the PBS. Then added 100 μl 4° C. […] lysis buffer (Boston BioProducts BP-115D) with protease and phosphatase inhibitors at vendor recommended concentrations (Roche 05892791001 and 04906837001) into each well to lyse the cells, and incubated for 20 minutes at 4° C. Cell lysate was collected into 1.5 ml Eppendorf tube, and the lysate was sonicated at 4° C. for 2 minutes (5 second pulse at 30% power with 10 second intermissions). The lysate was centrifuged at 12,000 rpm for 15 minutes at 4° C. The supernatant was transferred to a fresh Eppendorf tube, and protein concentration was quantified using a BCA kit (Solarbio, PC0020-500). Mixed the cell lysate and 5×NuPAGE SDS Loading Buffer (Beyotime, P0015L), and heated at 95° C. for 10 minutes in a heat block. Prepared samples were stored at −80° C. until SDS-PAGE procedure.
Day 4. Loaded 15 μg protein from each sample onto NuPAGE® Novex 4-12% Bis-Tris Midi Gel, 26 W (Invitrogen, WG1403BOX) and ran the gel at 120V for 1.5 hours in 1×NuPAGE® MOPS SDS Running Buffer (Novex, NP0001). Electrotransferred to nitrocellulose membrane using dry transfer method (iBlot 2 Transfer Stacks, nitrocellulose, IB23001) with a program consisting of 20V for 1 minute, 23V for 4 minutes and 25V for 2 minutes. Blocked the membrane with 5% BSA (Solarbio, A8020) in 1×TBST (CST, 9997S) for 1 hour at room temperature. Incubated with KRAS antibody (LSBio, LS-C175665, clone 2C1) at 1:1000 dilution and β-actin antibody at 1:1000 dilution (CST, 4970S) in TBST containing 1% BSA (Solarbio, A8020) at 4° C. overnight.
Day 5. Washed nitrocellulose membrane three times with 1×TBST for 10 minutes each at room temperature. Incubated with fluorescently labeled secondary antibodies at 1:5000 dilution in TBST containing 1% BSA (anti-rabbit IgG, Licor, 926-32211; anti-mouse IgG, LI-COR, 926-68070) for 1 hour at room temperature. Washed membrane three times with TBST, 10 minutes each. Scanned the membrane on LiCOR scanner for fluorescent signal(s) and quantified KRAS bands and β-actin bands for normalization.
The data are reported in Table 2, wherein “A” indicates a DC50 of less than 1 μM; “B” indicates a DC50 of greater than or equal to 1 μM and less than 10 μM; and “C” indicates a DC50 of greater than or equal to 10 μM.

T1 sequence (P01116 1-188 isoform P01116-2 G12D): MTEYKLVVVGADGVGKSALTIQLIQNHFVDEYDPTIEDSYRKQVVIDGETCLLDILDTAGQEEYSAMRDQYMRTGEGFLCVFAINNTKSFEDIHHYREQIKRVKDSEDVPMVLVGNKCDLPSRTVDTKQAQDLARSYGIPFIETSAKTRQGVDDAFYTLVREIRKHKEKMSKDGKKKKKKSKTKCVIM

Compound	DC50
C#Cc1c(F)ccc2cc(O)cc(-c3ncc4c(N5CC6CCC(C5)N6)nc(OC[C@@]56CCCN5[C@H](COC(=O)NCCCCCc5cccc7c5n(C)c(=O)n7C5CCC(=O)NC5=O)CC6)nc4c3F)c12 (stereo partly drawn) [Compound 007, [(3S,8S)-8-[[4-(3,8-diazabicyclo[3.2.1]octan-3-yl)-7-(8-ethynyl-7-fluoro-3-hydroxy-1-naphthyl)-8-fluoro-pyrido[4,3-d]pyrimidin-2-yl]oxymethyl]-1,2,3,5,6,7-hexahydropyrrolizin-3-yl]methyl N-[5-[1-(2,6-dioxo-3-piperidyl)-3-methyl-2-oxo-benzimidazol-4-yl]pentyl]carbamate]	C (DC50 greater than or equal to 10 μM)
C#Cc1c(F)ccc2cc(O)cc(-c3ncc4c(N5C[C@H]6CC[C@@H](C5)N6)nc(OC[C@@]56CCCN5[C@H](COC(=O)NCCCCc5cccc7c5n(C)c(=O)n7C5CCC(=O)NC5=O)CC6)nc4c3F)c12 (stereo partly drawn) [Compound 008, ((3S,7aS)-7a-(((4-((1R,5S)-3,8-diazabicyclo[3.2.1]octan-3-yl)-7-(8-ethynyl-7-fluoro-3-hydroxynaphthalen-1-yl)-8-fluoropyrido[4,3-d]pyrimidin-2-yl)oxy)methyl)hexahydro-1H-pyrrolizin-3-yl)methyl (4-(1-(2,6-dioxopiperidin-3-yl)-3-methyl-2-oxo-2,3-dihydro-1H-benzo[d]imidazol-4-yl)butyl)carbamate]	B (DC50 greater than or equal to 1 μM and less than 10 μM)
C#Cc1c(F)ccc2cc(O)cc(-c3ncc4c(N5CC6CCC(C5)N6)nc(OC[C@@]56CCCN5[C@H](COC(=O)NCCCCCCCCCCCc5ccc7c(c5)n(C)c(=O)n7C5CCC(=O)NC5=O)CC6)nc4c3F)c12 (stereo partly drawn) [Compound 009, [(3S,8S)-8-[[4-(3,8-diazabicyclo[3.2.1]octan-3-yl)-7-(8-ethynyl-7-fluoro-3-hydroxy-1-naphthyl)-8-fluoro-pyrido[4,3-d]pyrimidin-2-yl]oxymethyl]-1,2,3,5,6,7-hexahydropyrrolizin-3-yl]methyl N-[11-[1-(2,6-dioxo-3-piperidyl)-3-methyl-2-oxo-benzimidazol-5-yl]undecyl]carbamate]	A (DC50 less than 1 μM)
C#Cc1c(F)ccc2cc(O)cc(-c3ncc4c(N5CC6CCC(C5)N6)nc(OC[C@@]56CCCN5[C@H](COC(=O)NCCCCCCCCCc5ccc7c(c5)n(C)c(=O)n7C5CCC(=O)NC5=O)CC6)nc4c3F)c12 (stereo partly drawn) [Compound 010, [(3S,8S)-8-[[4-(3,8-diazabicyclo[3.2.1]octan-3-yl)-7-(8-ethynyl-7-fluoro-3-hydroxy-1-naphthyl)-8-fluoro-pyrido[4,3-d]pyrimidin-2-yl]oxymethyl]-1,2,3,5,6,7-hexahydropyrrolizin-3-yl]methyl N-[9-[1-(2,6-dioxo-3-piperidyl)-3-methyl-2-oxo-benzimidazol-5-yl]nonyl]carbamate]	A (DC50 less than 1 μM)
C#Cc1c(F)ccc2cc(O)cc(-c3ncc4c(N5CC6CCC(C5)N6)nc(OC[C@@]56CCCN5[C@H](COC(=O)NCCCCCCCCCCCc5cccc7c5n(C)c(=O)n7C5CCC(=O)NC5=O)CC6)nc4c3F)c12 (stereo partly drawn) [Compound 011, [(3S,8S)-8-[[4-(3,8-diazabicyclo[3.2.1]octan-3-yl)-7-(8-ethynyl-7-fluoro-3-hydroxy-1-naphthyl)-8-fluoro-pyrido[4,3-d]pyrimidin-2-yl]oxymethyl]-1,2,3,5,6,7-hexahydropyrrolizin-3-yl]methylN-[11-[1-(2,6-dioxo-3-piperidyl)-3-methyl-2-oxo-benzimidazol-4-yl]undecyl]carbamate]	A (DC50 less than 1 μM)
C#Cc1c(F)ccc2cc(O)cc(-c3ncc4c(N5CC6CCC(C5)N6)nc(OC[C@@]56CCCN5[C@H](COC(=O)NCCCCCCCCCc5cccc7c5n(C)c(=O)n7C5CCC(=O)NC5=O)CC6)nc4c3F)c12 (stereo partly drawn) [Compound 012]	A (DC50 less than 1 μM)
C#Cc1c(F)ccc2cc(O)cc(-c3ncc4c(N5C[C@H]6CC[C@@H](C5)N6)nc(OC[C@@]56CCCN5[C@H](COC(=O)NCCCCCCCCCCc5ccc7c(c5)n(C)c(=O)n7C5CCC(=O)NC5=O)CC6)nc4c3F)c12 (stereo partly drawn) [Compound 013, ((3S,7aS)-7a-(((4-((1R,5S)-3,8-diazabicyclo[3.2.1]octan-3-yl)-7-(8-ethynyl-7-fluoro-3-hydroxynaphthalen-1-yl)-8-fluoropyrido[4,3-d]pyrimidin-2-yl)oxy)methyl)hexahydro-1H-pyrrolizin-3-yl)methyl (10-(1-(2,6-dioxopiperidin-3-yl)-3-methyl-2-oxo-2,3-dihydro-1H-benzo[d]imidazol-5-yl)decyl) carbamate]	A (DC50 less than 1 μM)
C#Cc1c(F)ccc2cc(O)cc(-c3ncc4c(N5CC6CCC(C5)N6)nc(OC[C@@]56CCCN5[C@H](COC(=O)NCCCCCCCCCCc5cccc7c5n(C)c(=O)n7C5CCC(=O)NC5=O)CC6)nc4c3F)c12 (stereo partly drawn) [Compound 014, [(3S,8S)-8-[[4-(3,8-diazabicyclo[3.2.1]octan-3-yl)-7-(8-ethynyl-7-fluoro-3-hydroxy-1-naphthyl)-8-fluoro-pyrido[4,3-d]pyrimidin-2-yl]oxymethyl]-1,2,3,5,6,7-hexahydropyrrolizin-3-yl]methyl N-[10-[1-(2,6-dioxo-3-piperidyl)-3-methyl-2-oxo-benzimidazol-4-yl]decyl]carbamate]	A (DC50 less than 1 μM)
C#Cc1c(F)ccc2cc(O)cc(-c3ncc4c(N5CC6CCC(C5)N6)nc(OC[C@@]56CCCN5[C@H](COC(=O)NCCCCCCCCCCNc5ccc7c(c5)C(=O)N(C5CCC(=O)NC5=O)C7=O)CC6)nc4c3F)c12 (stereo partly drawn) [Compound 015, [(3S,8S)-8-[[4-(3,8-diazabicyclo[3.2.1]octan-3-yl)-7-(8-ethynyl-7-fluoro-3-hydroxy-1-naphthyl)-8-fluoro-pyrido[4,3-d]pyrimidin-2-yl]oxymethyl]-1,2,3,5,6,7-hexahydropyrrolizin-3-yl]methyl N-[10-[[2-(2,6-dioxo-3-piperidyl)-1,3-dioxo-isoindolin-5-yl]amino]decyl]carbamate]	A (DC50 less than 1 μM)
C#Cc1c(F)ccc2cc(O)cc(-c3ncc4c(N5CC6CCC(C5)N6)nc(OC[C@@]56CCCN5[C@H](COC(=O)NCCCCCCCCCNc5cccc7c5C(=O)N(C5CCC(=O)NC5=O)C7=O)CC6)nc4c3F)c12 (stereo partly drawn) [Compound 016, ((3S,7aS)-7a-(((4-(3,8-diazabicyclo[3.2.1]octan-3-yl)-7-(8-ethynyl-7-fluoro-3-hydroxynaphthalen-1-yl)-8-fluoropyrido[4,3-d]pyrimidin-2-yl)oxy)methyl)hexahydro-1H-pyrrolizin-3-yl)methyl (9-((2-(2,6-dioxopiperidin-3-yl)-1,3-dioxoisoindolin-4-yl)amino)nonyl)carbamate]	A (DC50 less than 1 μM)
C#Cc1c(F)ccc2cc(O)cc(-c3ncc4c(N5CC6CCC(C5)N6)nc(OC[C@@]56CCCN5[C@H](COC(=O)NCCCCCCNc5ccc7c(c5)C(=O)N(C5CCC(=O)NC5=O)C7=O)CC6)nc4c3F)c12 (stereo partly drawn) [Compound 017, [(3S,8S)-8-[[4-(3,8-diazabicyclo[3.2.1]octan-3-yl)-7-(8-ethynyl-7-fluoro-3-hydroxy-1-naphthyl)-8-fluoro-pyrido[4,3-d]pyrimidin-2-yl]oxymethyl]-1,2,3,5,6,7-hexahydropyrrolizin-3-yl]methyl N-[6-[[2-(2,6-dioxo-3-piperidyl)-1,3-dioxo-isoindolin-5-yl]amino]hexyl]carbamate]	B (DC50 greater than or equal to 1 μM and less than 10 μM)
C#Cc1c(F)ccc2cc(O)cc(-c3ncc4c(N5CC6CCC(C5)N6)nc(OC[C@@]56CCCN5[C@H](COC(=O)NCCCCCCCCNc5cccc7c5C(=O)N(C5CCC(=O)NC5=O)C7=O)CC6)nc4c3F)c12 (stereo partly drawn) [Compound 018]	B (DC50 greater than or equal to 1 μM and less than 10 μM)
